Laboratory results reported in US20230129866A1 (PureTech LYT 100, Inc., priority 2020, published 2023).
Read-outs that look alike come from different tables or passages of the source.

Experiments:
LPS-induced plasma IL-6 = LPS-induced plasma IL-6 after oral pretreatment in rats; assay type: in vivo, Sprague-Dawley rats; conditions: Mean ± St. Dev, n = 6-8; for Plasma IL-6 concentrations 4 hours after LPS: vehicle 13989 ± 6125; for Plasma IL-6 concentrations 1.5 hours after LPS: vehicle 40423 ± 8653
Method: (§1) LPS was diluted with sterile saline to […] and sonicated at 40° C. for 20 minutes to generate a stock solution and stored at 4° C. Each day of use, the stock solution was further diluted to 0.03 mg/mL in sterile saline.
(§2) Male Sprague-Dawley rats with indwelling femoral and jugular venous catheters (n=6-8 per dose and test article group) were used in this study. […] Sixty minutes after the oral dose, 0.03 mg/kg of LPS in 1 mL/kg saline was infused into the jugular vein.
(§3) Blood samples were collected from the femoral vein into heparin-coated syringes 15 minutes prior to the LPS infusion (45 minutes after oral doses of test article), 90 minutes after the LPS infusion and 4 hours after the LPS infusion. Plasma was prepared by centrifugation of the blood samples at 14,000 rpm for 10 minutes. Plasma samples were stored at −70 ° C. until analysis.

[1] = 200 mg SD-559 (pirfenidone) BID, Huang et al.; in ng/mL; cited from earlier work
LPS-induced plasma TNFα = experiment: LPS-induced plasma TNF-α after oral pretreatment in rats; assay type: in vivo, Sprague-Dawley rats; conditions: Mean ± St. Dev., n = 6-8; for Plasma TNFα concentrations 4 hours after LPS: vehicle 693 ± 553; for Plasma TNFα concentrations 1.5 hours after LPS: vehicle 75389 ± 29107
Method: as §1, §2, §3

[2] = cited from earlier work
[3] = rat, in vivo
Method: The original male TK animals received 1000 mg/kg of SD-559 on Day 1 and continued on study. The protocol was amended to add additional TK male animals in Group 6 for Day 1 collection of TK samples at 875 mg/kg.
Blood samples were collected from 3 subsets of 3 animals/sex on Day 1 and Day 28 at pre-dose, 0.25, 0.5, 1, 2, 4. 8 and 24 hours (hr) post-dose for groups 2 to 6 and from one subset of 3 animals/sex at 0.25 hr post-dose for the vehicle group (group 1). […] Non-compartmental analysis (NCA) of plasma concentration data was conducted using Phoenix® WinNonlin®, version 8.0.

[4] = human, in vivo, po
From the text: Following screening, eligible healthy volunteer subjects were admitted to a single clinical study site and were randomized to 1 of 2 treatment sequences. […] In each period, a standardized breakfast was provided to subjects prior to administration of study drug (to compare the PK profiles in the clinically relevant fed state) and plasma samples were collected over a 48-hour period after dosing for evaluation of PK. Dosing between the 2 periods was separated by a minimum of 7 days. Subjects completed the study upon completion of the 48-hour post-dose assessments following dosing period 2.
All capsules were identical in size, shape, and external color.

[5] = cited from earlier work; remark: listed apart in the source
[6] = humans, cited from earlier work
[7] = 30 mg/kg oral pretreatment 1 hour prior to LPS injection
[8] = 100 mg/kg oral pretreatment 1 hour prior to LPS injection
[9] = 300 mg/kg oral pretreatment 1 hour prior to LPS injection
[10] = Pirfenidone @801 mg, Rubino et al.
[11] = Lancaster et al. 2017, frequencies as high as
[12] = multinational post-marketing study
[13] = single-center retrospective observational study, 351 patients

Cc1ccc(=O)n(-c2ccccc2)c1 [Pirfenidone, 5-methyl-1-phenyl-1H-pyridin-2-one]
Plasma IL-6 concentrations 4 hours after LPS (LPS-induced plasma IL-6; [7]): 8886 ± 5321 pg/mL
Plasma IL-6 concentrations 1.5 hours after LPS (LPS-induced plasma IL-6; [7]): 25173 ± 10651 pg/mL
Plasma IL-6 concentrations 4 hours after LPS (LPS-induced plasma IL-6; [8]): 4603 ± 2524 pg/mL
Plasma IL-6 concentrations 1.5 hours after LPS (LPS-induced plasma IL-6; [8]): 26226 ± 8434 pg/mL
Plasma IL-6 concentrations 4 hours after LPS (LPS-induced plasma IL-6; [9]): 2361 ± 1185 pg/mL
Plasma IL-6 concentrations 1.5 hours after LPS (LPS-induced plasma IL-6; [9]): 18692 ± 9996 pg/mL
observed Cmax [1]: 2305
Plasma TNFα concentrations 4 hours after LPS (LPS-induced plasma TNFα; [7]): 346 ± 83 pg/mL
Plasma TNFα concentrations 1.5 hours after LPS (LPS-induced plasma TNFα; [7]): 46138 ± 20266 pg/mL
Plasma TNFα concentrations 4 hours after LPS (LPS-induced plasma TNFα; [8]): 207 ± 92 pg/mL
Plasma TNFα concentrations 1.5 hours after LPS (LPS-induced plasma TNFα; [8]): 22230 ± 16540 pg/mL
Plasma TNFα concentrations 4 hours after LPS (LPS-induced plasma TNFα; [9]): 131 ± 32 pg/mL
Plasma TNFα concentrations 1.5 hours after LPS (LPS-induced plasma TNFα; [9]): 11495 ± 10753 pg/mL
AUC, % Change Fed vs Fasted [2, 10]: −15%
Cmax, % Change Fed vs Fasted [2, 10]: −49%
Tmax, % Change Fed vs Fasted [2, 10]: +500%
Increase in Tmax, fed vs fasted ([2]; pirfenidone 801 mg dose, prior study): 500%
Accumulation after multiple dosing for 28 Days [3]: No accumulation
Tolerability of single doses [4]: well tolerated
Fatigue frequency (TEAE rate) [5, 11]: ≤ 52.4 per 100PEY
Nausea frequency (TEAE rate) [5, 11]: ≤ 62.1 per 100 PEY
Patients with permanent treatment discontinuation due to adverse drug reactions ([5]; PASSPORT long-term observational safety study, Cottin et al. 2018): 28.7%
Treatment discontinuation rate with predominant gastrointestinal side-effects ([5]; b281): > 25%
Patients who had an adverse event ([5]; compassionate use program, Raghu & Thickett 2013): 44%
Patients who experienced an adverse event [5, 12]: Approximately 73%
Patients with gastrointestinal symptoms [5, 12]: 38%
Patients with an ADR leading to discontinuation ([5]; patients aged <65 years): 7.5%
Patients with an ADR leading to dose modification/interruption ([5]; patients aged <65 years): 18.0%
Patients with an ADR leading to discontinuation ([5]; patients aged ≥80 years): 20.9%
Patients with an ADR leading to dose modification/interruption ([5]; patients aged ≥80 years): 32.7%
Elevations of AST and ALT levels to >3x ULN ([5]; phase III trials): 3.2%
Loss of appetite [5, 13]: 17%
Nausea/vomiting [5, 13]: 15%
Share of reported AEs that were GI-related [5, 13]: 75%
Share of recovered drug material excreted as unchanged pirfenidone ([6]; urine): less than 1%
Oral dose excreted in urine [6]: approximately 80%
